Results taken from patent US6514997B2, “Antipicornaviral compounds and compositions, their pharmaceutical uses, and materials for their synthesis” (Agouron Pharmaceuticals, Inc., priority 1999, dated 2003).
pEC50: −log10 of the molar value. Read-outs that look alike come from different tables or passages of the source.

Tests used:
[1] = biological target: T1, Recombinant rhinovirus 3C protease, serotype 14 (Human rhinovirus 14, UniProt P03303); assay: Inhibition of rhinovirus 3C protease (FRET assay, kobs/[I]), serotype 14; type: biochemical; conditions: pH 7.6; HRV-14; read-out: kobs/[I] (3C protease inhibition activity)
T1 construct: Recombinant rhinovirus 3C proteases; made in house
T1 sequence (P03303 1538-1719): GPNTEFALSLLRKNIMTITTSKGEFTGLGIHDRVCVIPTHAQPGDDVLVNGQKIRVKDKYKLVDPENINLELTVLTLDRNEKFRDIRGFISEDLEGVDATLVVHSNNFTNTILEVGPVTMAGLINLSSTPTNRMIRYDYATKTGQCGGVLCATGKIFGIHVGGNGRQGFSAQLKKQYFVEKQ
How it was run: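 kobs/[I] values came from progress curves of reactions started by adding 50-100 nM protease to buffer (50 mM tris pH 7.6, 1 mM EDTA, 2% DMSO) containing compound and ~1 μM quenched DABCYL-EDANS substrate. Rising EDANS fluorescence reported cleavage.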

[2] = test system: HRV-14; assay: Antirhinoviral H1-HeLa cell culture assay (XTT cell protection, EC50), HRV-14; type: cell-based, human rhinovirus (HRV) serotype-14 in H1-HeLa cells; conditions: Rhinovirus B, HRV14, H1-HeLa
How it was run: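 XTT dye reduction (450/650 nm) measured survival of H1-HeLa cells two days after HRV-14 infection at m.o.i. 0.13 in the presence of compound, giving EC50. The therapeutic index is CC50 divided by EC50.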

[3] = test system: strains of human rhinovirus (HRV); assay: Antirhinoviral H1-HeLa cell culture assay (XTT cell protection, EC50), other HRV strains; type: cell-based, human rhinovirus in H1-HeLa cells; conditions: read-out: EC50
How it was run: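 Protection of H1-HeLa cells from rhinovirus was scored two days post-infection via XTT dye reduction read at 450/650 nm, alongside mock-infected cells for toxicity. CC50/EC50 gives the therapeutic index.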

[4] = test system: Coxsackievirus type B3 (CVB3); assay: Anticoxsackieviral cell culture assay (XTT, EC50), CVB3; type: cell-based, coxsackievirus B3 in H1-HeLa cells
Protocol: Anticoxsackieviral Cell Culture Assay:
Coxsackievirus types A-21 (CAV-21) and B3 (CVB3) were purchased from American Type Culture Collection (ATCC, Rockville, Md.). Virus stocks were propagated and antiviral assays were performed in H1-HeLa cells (ATCC). Cells were grown in minimal essential medium with 10% fetal bovine serum (Life Technologies, Gaithersburg, Md.). The ability of the compounds of this invention to protect cells against either CAV-21 or CVB3 infection was measured by the XTT dye reduction method. This method is described in Weislow et al., J. Natl. Cancer Inst. (1989), vol. 81, 577-586. H1-HeLa cells were infected with CAV-21 or CVB3 at a multiplicity of infection (m.o.i.) of 0.025 or 0.075, respectively, or mock-infected with medium only. H1-HeLa cells were plated at 4×10^4 cells per well in a 96-well plate and incubated with appropriate concentrations of the test compound. One day (CVB3) or two days (CAV-21) later, XTT/PMS was added to test plates and the amount of formazan produced was quantified spectrophotometrically at 450/650 nm. […] The therapeutic index (TI) was calculated by dividing the CC50 by the EC50.

[5] = Cytotoxicity (CC50) in uninfected MRC-5 cells, XTT dye reduction; type: cell-based, human; conditions: human, MRC-5 cells, uninfected (mock-infected); line of ECHO-11
Protocol: Echovirus type 11 (ECHO 11) was purchased from ATCC (Rockville, Md.). Virus stocks were propagated and antiviral assays were performed in MRC-5 cells (ATCC). Cells were grown in minimal essential medium with 10% fetal bovine serum (Life Technologies, Gaithersburg, Md.). The ability of the compounds of this invention to protect cells against ECHO 11 infection was measured by the XTT dye reduction method (Weislow et al., J. Natl. Cancer Inst. (1989), vol. 81, 577-586). MRC-5 cells were infected with ECHO 11 at an m.o.i. of 0.003 or 0.004, respectively, or mock-infected with medium only. Infected or uninfected cells were added at 1×10^4 cells per well and incubated with appropriate concentrations of compound. Four days later, XTT/PMS was added to test plates, and the amount of formazan produced was quantified spectrophotometrically at 450/650 nm. […] The therapeutic index (TI) was calculated by dividing the CC50 by the EC50. Activity of the compounds against enterovirus type 70 (EV 70) may be measured by the same assay as described above in this section. Enterovirus type 70 (EV 70) may be obtained from the American Type Culture Collection ATCC (Rockville, Md.).

[6] = test system: coxsackievirus B2 (CVB2); assay: Anticoxsackieviral cell culture assay (EC50), CVB2; type: cell-based; conditions: Enterovirus B

Compound: CCOC(=O)/C=C/[C@H](C[C@@H]1CCNC1=O)NC(=O)[C@H](Cc1ccc(F)c(F)c1)n1cccc(NC(=O)c2cc(C)on2)c1=O [Compound 33, trans-(2′S,3′″″S,4S)-4-(3′-(3″,4″-Difluorophenyl)-2′-{3′″-[(5″″-methylisoxazole-3″″-carbonyl)amino]-2′″-oxo-2′″H-pyridin-1′″-yl}propionylamino)-5-(2′″″-oxopyrrolidin-3′″″-yl)pent-2-enoic Acid Ethyl Ester]
- kinact/KI [1]: 1.8e+06 M⁻¹ s⁻¹
- pEC50 [2]: 9.00
- pEC50 ([3]; H1-HeLa, HRV-2): 8.52
- pEC50 ([3]; H1-HeLa, HRV-23): 8.52
- pEC50 ([3]; Human rhinovirus sp., H1-HeLa, HRV-Hanks): 8.30
- pEC50 ([3]; Human rhinovirus sp., HRV3, H1-HeLa, HRV-3): 8.52
- pEC50 ([3]; Human rhinovirus sp., HRV9, H1-HeLa, HRV-9): 7.82
- pEC50 ([3]; Human rhinovirus sp., HRV11, H1-HeLa, HRV-11): 8.52
- pEC50 ([3]; Human rhinovirus sp., HRV13, H1-HeLa, HRV-13): 7.85
- pEC50 ([3]; Human rhinovirus sp., HRV16, H1-HeLa, HRV-16): 8.22
- pEC50 ([3]; Human rhinovirus sp., HRV19, H1-HeLa, HRV-19): 8.40
- pEC50 ([3]; Human rhinovirus sp., HRV25, H1-HeLa, HRV-25): 7.55
- pEC50 ([3]; Human rhinovirus sp., HRV39, H1-HeLa, HRV-39): 8.40
- pEC50 ([3]; Human rhinovirus sp., HRV78, H1-HeLa, HRV-78): 8.30
- pEC50 ([3]; Human rhinovirus sp., HRV87, H1-HeLa, HRV-87): 8.30
- pEC50 [4]: 8.52
- CC50 at 4 days [5]: > 10000 nM
- pEC50 [6]: 7.82
